Results reported in BindingDB's records for doi:10.1016/s0960-894x(02)00639-x (Monash University (Parkville Campus), 2002).

Assays:
[1] = Equilibrium dissociation constant for [3H]DPCPX binding to Adenosine A1 receptor from DDT1 MF2 cell membranes
[2] = Inhibitory concentration against [3H]DPCPX binding to Adenosine A1 receptor from DDT1 MF2 cells
[3] = Equilibrium dissociation constant for [3H]DPCPX binding to Adenosine A1 receptor from DDT1 MF2 cell membranes; remark: listed apart in the source

SMILES	Kd [1]	IC50 [2]	IC50 [3]
CCCn1c(=O)c2[nH]c(C3CC4CCC3C4)nc2n(CCCCC(=O)c2ccc(S(=O)(=O)F)cc2)c1=O (stereo not given) [4-[5-(8-Bicyclo[2.2.1]hept-2-yl-2,6-dioxo-1-propyl-1,2,6,7-tetrahydro-purin-3-yl)-pentanoyl]-benzenesulfonyl fluoride]	0.53 nM	3.9 nM	–
CCCn1c(=O)c2[nH]c(C3CCCCC3)nc2n(CCCCC(=O)c2ccc(S(=O)(=O)F)cc2)c1=O [4-[5-(8-Cyclohexyl-2,6-dioxo-1-propyl-1,2,6,7-tetrahydro-purin-3-yl)-pentanoyl]-benzenesulfonyl fluoride]	–	17 nM	–
CCCn1c(=O)c2[nH]c(C3CCCC3)nc2n(CCCCC(=O)c2ccc(S(=O)(=O)F)cc2)c1=O [4-[5-(8-Cyclopentyl-2,6-dioxo-1-propyl-1,2,6,7-tetrahydro-purin-3-yl)-pentanoyl]-benzenesulfonyl fluoride]	0.53 nM	–	8.7 nM
